Assay results reported in patent US20080207446A1, “Use of Phenylsemicarbazones for Seed Treatment” (BASF Aktiengesellschaft, priority 2005, published 2008).

Legend:
Format in all cases: in vivo
[1] = system: Helix hortensis; assay: Greenhouse snail trial on sprayed lettuce; details: lettuce sprayed with 240 g active ingredient per ha (240 g/l suspension concentrate)
Procedure: For this example, a 240 g/l suspension concentrate of a compound I with R^1=trifluoromethyl in meta position, R^2=cyano in para position and R^3=trifluoromethoxy in para position was used with an application rate of 240 gram active ingredient per ha.
The trial was carried out in the greenhouse under practical conditions in sandy soil. Three lettuce plants, variety Filipo, growth stage 45-46, were used as plot size. The lettuce was sprayed with a solution of the above mentioned compound at a rate of 240 gram active ingredient per hectare with 500 l/ha water. For spraying was a single Teejet® nozzle, model 8002 (from Spraying System Mobile Systems Division, Wheaton, Ill., USA), at 3 atmosphere pressure used.
After the spray application, the plots were covered by net cages (diameter 40 cm) and 20 snails (sexually mature individuals of Helix hortensis) were added to every plot.
Also an estimation of eating damages was recorded.

[2] = system: carrot seeds; assay: Absence of phytotoxicity: sprouting of treated carrot seeds; details: for Influence on the viability of carrot seeds: seed treatment, conclusion from Table 1
Procedure: To determine the effect of seed treatment on the viability of seeds and sprouting plants, carrot seeds were either treated with metaflumizone, coated with the insecticide chlorfenvinphos (commercially available under, and herein referred to by, the name Birlane™) or left untreated, then sowed and raised under controlled environmental conditions. At day 20 and day 43, respectively, the percentage of seeds which had sprouted was assessed.

[3] = system: Psila rosae; assay: Long-term effect of carrot seed coating against Psila rosae; details: for Percentage of plants infested with Psila rosae (long-term): carrot seed coating 100 ml/unit; for Persistence of the protective effect of seed treatment: carrot seed coating, conclusion from Table 3
Procedure: The objective of this trial was the direct comparison of metaflumizone with the market standard Birlane™ at 100 ml product per unit of seed. Activity evaluation considered the residual activity of the products up to 124 days after application.
Carrot seeds were coated or left uncoated, sowed and raised as described in Example 2 and subjected to Psila rosae infestation at an approximate density of 300 to 400 insects per trap at days 46 to 53 after sowing. At days 82, 96, 110 and 124, respectively, 100 plants per field were examined for maggot infestation.

[4] = system: Psila rosae; assay: Effective dosage of metaflumizone on carrot seeds against Psila rosae
Source text: In order to quantify the effect of metaflumizone against maggots, carrot seeds were coated with different concentrations of metaflumizone, with Birlane™ or left uncoated, then sowed and raised as described in the above Examples.

[5] = system: Psila rosae; assay: Short-term protection of carrots against Psila rosae by seed coating; details: for Reduction of early damage by maggots: conclusion from Table 2
Source text: In order to determine the efficacy of seed coating against dipteran larvae, carrot seeds were coated with two different concentrations of metaflumizone, Birlane™ or left untreated, then sowed and raised as described in Example 1. At day 35 after sowing, the plants were exposed to infestation by Psila rosae, which was monitored by adult trap catches. 300 to 400 insects per trap indicated fair infestation pressure. At days 35 and 91, respectively, 100 plants per field were examined for maggot infestation.
All test products were applied by seed coating of carrot seeds. Birlane™ was applied according to label recommendations for carrots. Metaflumizone was applied at 50 ml and 100 ml formulated product per seed unit, respectively. The assessments of carrot rooffly damage were conducted 35 and 91 daysafter sowing. Infestation was evaluated by assessing 100 carrot roots per treatment, and the number of infested plants was recorded. The figures included in the table show the percentage of damaged plants by treatment.

[6] = 4 days after placing the snails

## N#Cc1ccc(C/C(=N/NC(=O)Nc2ccc(OC(F)(F)F)cc2)c2cccc(C(F)(F)F)c2)cc1 [metaflumizone, 2-[2-(4-cyanophenyl)-1-[3-(trifluoromethyl)phenyl]ethylidene]-N-[4-(trifluoromethoxy)phenyl]hydrazinecarboxamide]
[1]; 1 day after placing the snails
  snails inactive: 47%
[1]; 2 days after placing the snails
  snails inactive: 63%
[1]; [6]
  snails dead: 71%
  snails inactive (further to the dead): 12%

## N#Cc1ccc(CC(=NNC(=O)Nc2ccc(OC(F)(F)F)cc2)c2cccc(C(F)(F)F)c2)cc1 (racemic) [metaflumizone, 2-[2-(4-cyanophenyl)-1-[3-(trifluoromethyl)phenyl]ethylidene]-N-[4-(trifluoromethoxy)phenyl]hydrazinecarboxamide]
[2]; carrot, in vivo, 20 day
  Percentage of growing plants: 42%
[2]; carrot, in vivo, 43 day
  Percentage of growing plants: 47%
[2]
  Influence on the viability of carrot seeds: no significant influence
[3]; Day 82
  Percentage of plants infested with Psila rosae (long-term): 2%
[3]; Day 96
  Percentage of plants infested with Psila rosae (long-term): 4%
[3]; Day 110
  Percentage of plants infested with Psila rosae (long-term): 10%
[3]; Day 124
  Percentage of plants infested with Psila rosae (long-term): 22%
[3]
  Persistence of the protective effect of seed treatment: gradually wore off after 3-4 months
[4]; 25 ml/unit, Day 70
  Effective dosage of metaflumizone in the treatment of carrot seeds (percentage): 2%
[4]; 25 ml/unit, Day 97
  Effective dosage of metaflumizone in the treatment of carrot seeds (percentage): 33%
[4]; 25 ml/unit, Day 116
  Effective dosage of metaflumizone in the treatment of carrot seeds (percentage): 73%
[4]; 50 ml/unit, Day 70
  Effective dosage of metaflumizone in the treatment of carrot seeds (percentage): 1%
[4]; 50 ml/unit, Day 97
  Effective dosage of metaflumizone in the treatment of carrot seeds (percentage): 24%
[4]; 50 ml/unit, Day 116
  Effective dosage of metaflumizone in the treatment of carrot seeds (percentage): 61%
[4]; 75 ml/unit, Day 70
  Effective dosage of metaflumizone in the treatment of carrot seeds (percentage): 0%
[4]; 75 ml/unit, Day 97
  Effective dosage of metaflumizone in the treatment of carrot seeds (percentage): 14%
[4]; 75 ml/unit, Day 116
  Effective dosage of metaflumizone in the treatment of carrot seeds (percentage): 55%
[4]; 100 ml/unit, Day 70
  Effective dosage of metaflumizone in the treatment of carrot seeds (percentage): 0%
[4]; 100 ml/unit, Day 97
  Effective dosage of metaflumizone in the treatment of carrot seeds (percentage): 29%
[4]; 100 ml/unit, Day 116
  Effective dosage of metaflumizone in the treatment of carrot seeds (percentage): 55%
[5]; carrot seed coating 50 ml/unit, Day 35 after sowing
  Percentage of plants infested with Psila rosae: 3%
[5]; carrot seed coating 50 ml/unit, Day 91 after sowing
  Percentage of plants infested with Psila rosae: 12%
[5]; carrot seed coating 100 ml/unit, Day 35 after sowing
  Percentage of plants infested with Psila rosae: 7%
[5]; carrot seed coating 100 ml/unit, Day 91 after sowing
  Percentage of plants infested with Psila rosae: 10%
[5]; carrot seed coating
  Reduction of early damage by maggots: effective in reducing early damage by maggots
[5]; carrot seed coating, during the first weeks
  Prevention of damage to seedlings compared with Birlane: slightly more efficient than Birlane™

## CCOP(=O)(OCC)O/C(=C\Cl)c1ccc(Cl)cc1Cl [Birlane ™, chlorfenvinphos, reference compound]
[2]; carrot seeds, Day 20, coated with Birlane
  Percentage of growing plants: 52%
[2]; carrot seeds, Day 43, coated with Birlane
  Percentage of growing plants: 56%
[2]
  Influence on the viability of carrot seeds: no significant influence
[3]; Day 82
  Percentage of plants infested with Psila rosae (long-term): 0.5%
[3]; Day 96
  Percentage of plants infested with Psila rosae (long-term): 2%
[3]; Day 110
  Percentage of plants infested with Psila rosae (long-term): 8%
[3]; Day 124
  Percentage of plants infested with Psila rosae (long-term): 11%
[3]
  Persistence of the protective effect of seed treatment: gradually wore off after 3-4 months
[4]; Birlane, dose not given, Day 70
  Effective dosage of metaflumizone in the treatment of carrot seeds (percentage): 0.1%
[4]; Birlane, dose not given, Day 97
  Effective dosage of metaflumizone in the treatment of carrot seeds (percentage): 23%
[4]; Birlane, dose not given, Day 116
  Effective dosage of metaflumizone in the treatment of carrot seeds (percentage): 61%
[5]; carrot seed coating according to label recommendations, Day 35 after sowing
  Percentage of plants infested with Psila rosae: 9%
[5]; carrot seed coating according to label recommendations, Day 91 after sowing
  Percentage of plants infested with Psila rosae: 12%
[5]; carrot seed coating
  Reduction of early damage by maggots: effective in reducing early damage by maggots
